According to a melting point compilation (Tetko et al.):

Compound	melting point [°C]
c1ccc2c(c1)-c1cc3ccccc3c3cc4ccccc4c-2c13	232
CN(C)c1nnc(Br)c(-c2nc(N(C)C)nnc2Br)n1	123
COP(=O)(OC)SCn1c(=O)oc2cc(Cl)cnc21	89
c1ccc(-c2sc(-c3ccccc3)c3ccccc23)cc1	114 to 119
CC(=O)N[C@H]1C(O)O[C@H](CO)[C@@H](O)[C@@H]1O (stereo not given in full)	211
N#Cc1ccc(-n2cccc2)cc1	103 to 105
O=C(O)C(F)(F)C(F)(F)C(F)(F)C(F)(F)C(=O)O	134
FC(F)(F)C(F)(F)C(F)(F)C(F)(F)OC(F)(F)C(F)(F)C(F)(F)C(F)(F)F	-100
O=C(O)CN(CCO)CCN(CC(=O)O)CC(=O)O	212 to 214
C#CC1(O)CCC2C3CCC4=CC(=O)CCC4=C3C=CC21C (stereo not given)	169
CCn1c(=O)c(C=C2C(=O)NN=C2c2c(O)c3ccccc3n(C)c2=O)c(O)c2ccccc21	295
CC(=O)Nc1ccc(C2=NN(c3ccccc3)C(=O)/C2=C/C2C(=O)N(c3ccccc3)N=C2c2ccc(NC(C)=O)cc2)cc1 (stereo not given)	317
c1coc(P(c2ccco2)c2ccco2)c1	62
CN1C2CCC1C(C(=O)O)C(O)C2 (stereo not given)	205
O=C(O)c1ccc(=O)[nH]c1	314 to 316
Cc1cc(-c2onc(C)c2C(=O)Cl)no1	57
O=C1CCCCCCCN1	78
O=[N+]([O-])c1ccc2c(O)c(-c3cccc(-c4[nH]c5cc([N+](=O)[O-])ccc5c4O)c3)[nH]c2c1	266
O=C(O)C(O)C(O)C(O)C(O)C(=O)O (stereo not given)	230
CCCCCSc1nnc[nH]1	47 to 48

Compound	melting point [°C]
CC(C)c1ccc(C=C[N+](=O)[O-])cc1	35 to 38
Cc1ccc(S(=O)(=O)Nc2cc(N)c([N+](=O)[O-])cc2NS(=O)(=O)c2ccc(C)cc2)cc1	165
O=CC(Cl)=C(Cl)C(=O)O	127
CC(C)(C)N(NC(=O)c1ccc(Cl)cc1)C(=O)c1ccccc1	200
CC(C)(C)C(O)(CCc1ccc(Cl)cc1)Cn1cncn1 (stereo not given)	105
OCN(CO)c1nc(N(CO)CO)nc(N(CO)CO)n1	137
Clc1cccnc1Br	60
COc1cccc(C2(O)CCCCC2CN(C)C)c1 (stereo not given)	180
O=C(O)CN(CCN(CC(=O)O)CC(=O)O)CC(=O)O	220
O=C1C=CC(=O)N1c1ccc(N2C(=O)C=CC2=O)cc1	300
O=C(O)CN(CCOCCOCCN(CC(=O)O)CC(=O)O)CC(=O)O	240 to 245
FC(Cl)C(F)(F)F (stereo not given)	-199
Cc1cc([N+]([O-])=Nc2ccccc2)ccc1N=Nc1ccccc1	103
O=[N+]([O-])c1cc([N+](=O)[O-])cc(C(F)(F)F)c1	51
Nc1ccc2c3c(cccc13)C(=O)NC2=O	360
CCCCCCCCCCCCCCCC(=O)OCCC	20.4
CCOP(=S)(Oc1ccc(C#N)cc1)c1ccccc1 (stereo not given)	83
Nc1c(Oc2ccccc2)c(Oc2ccccc2)c(N)c2c1C(=O)c1ccccc1C2=O	195
FC(F)(F)C(F)(F)C(Cl)(Cl)Cl	-80

The next lines start with the values.

melting point [°C]	Compound
124	NC(=O)C1CC1
246	NC(=O)NN=CC(=O)c1ccc(C(=O)C=NNC(N)=O)cc1
92	COC(=O)C1CCCc2c1[nH]c1ccc(OC)cc21 (stereo not given)
10	O=C1CC2CCCCC2C1 (stereo not given)
164 to 166	COc1ccc(C(=O)O)cc1OC1CCCC1
127 to 129	CCOC(=O)NC(=S)Nc1cccc(C)n1
200	N#C/C(=N\Nc1cccc(C(=O)O)c1)c1nc2ccccc2s1
41.5	CCSC(=O)COc1ccc(Cl)cc1C
78	CC(C)(C)OC(=O)NC(Cc1cccc(F)c1)C(=O)O (stereo not given)
85	COC(=O)C(C)N(C(=O)c1ccccc1)c1ccc(F)c(Cl)c1 (stereo not given)
168	O=C(N[C@@H](Cc1ccccc1Br)C(=O)O)OCC1c2ccccc2-c2ccccc21
66	O=[N+]([O-])c1cc(N=C=S)ccc1Cl
152 to 158	CS(=O)(=O)c1ccc(F)c([N+](=O)[O-])c1
131	COc1ccc([N+](=O)[O-])c(N)c1
103 to 105	O=C(OCc1ccccc1Cl)ON1C(=O)CCC1=O
164 to 168	O=C1Nc2ccccc2CCC1Br (stereo not given)
201 to 203	COn1c(C)c(C(C)=O)c2c3nonc3ccc21
45	OCCOc1cccc2ccccc12
89	C=Cc1c(Cl)cccc1Cl
28.5	Fc1ccc(Br)nc1
119	CCCOC(=O)C1=C(C)NC(C)=C(C(=O)OCCC)C1c1ccccc1
91.5	CCCCNC(=O)c1ccc(Cl)cc1O
128	CCOc1cccc2c(=O)c(=O)c12
161	CCCSc1ncccc1C(=O)O
112 to 113	CC(=O)Nc1ccccc1C(=O)CCl
290	OC1NN(c2ccccc2)C(O)C1=Cc1ccc2c(c1)OCO2 (stereo not given)

melting point [°C]	Compound
95	O=C1OCCC1N(C(=O)C1CC1)c1cccc(Cl)c1 (stereo not given)
58 to 60	COc1cccc(O)c1C(C)=O
72 to 75	O=C(c1ccccc1)c1ccc2c(c1)OCCCO2
59	CC1CCC(C)(CNc2ccccc2)C1(C)C (stereo not given)
73 to 75	Nc1ccc(I)cc1Cl
92 to 94	Cc1ccc(O)c(C(=O)CC(=O)c2ccccc2)c1
173	COc1ccccc1-c1nnc2n1NC(c1ccccc1OC)S2 (stereo not given)
202 to 204	O=C(O)C=Cc1cccc([N+](=O)[O-])c1
59	C[Si](C)(C)C1=CC2CCCCC2C1=O (stereo not given)
229 to 230	CC(C)n1c2c(c(=O)[nH]c1=O)CCCC2
87 to 91	CCOC(=O)c1cn2ccsc2n1
222	C=CC1=C(C(=O)O)N2C(=O)C(NC(=O)C(=NOCC(=O)O)c3csc(N)n3)C2SC1 (stereo not given)
59 to 61	CCCCCCCCOc1ccc(C(C)=O)cc1OCCCCCCCC
152	CC(=O)N(C)c1cccc(N(C)C(C)=O)c1
192	NC(=O)c1ccc(Cl)cc1Cl
150 to 152	COc1ccc(C(N)=S)cn1
154 to 156	Brc1ccc(-c2csnn2)cc1
93 to 94	Cc1ccc2sc(CO)cc2c1
137 to 138	Cc1cc(Br)c(N)cc1OCc1ccccc1
130	COC(=O)c1ccc2cc(OC)ccc2c1
236	Cc1cc2c(cc1S(N)(=O)=O)S(=O)(=O)CCC2
139 to 142	CNc1ccc(C#N)cc1N
31	O=S(=O)(Cl)c1ccc(C(F)(F)F)cc1
38.5	CSc1ccc(Br)cc1
67 to 71	O=C(OCc1ccccc1)N1c2ccccc2CC1CO (stereo not given)
